From patent US10988478B1, “Pyrazolo[1,5a]pyrimidine derivatives as IRAK4 modulators” (Genentech, Inc., priority 2015, dated 2021)

Target: human IRAK4 (Homo sapiens (Human), UniProt Q9NWZ3)
Assay: IRAK4 kinase inhibition, Transcreener fluorescence polarization ADP assay
Format: biochemical
Conditions: recombinant full-length His6-IRAK4; 125 uM ATP; 90 min; Ki computed using ATP Km 642 uM
Description: Compounds were assayed for inhibition of human IRAK4 and IRAK1 catalytic activity using recombinant enzyme produced from insect cells. Full-length IRAK4 protein, carrying an N-terminal His6-Tag, was obtained from Life Technologies (Carlsbad, Calif., USA). The IRAK1 construct was produced internally and was comprised of IRAK1 residues Arg194 to Ser712, preceded by an NH2-terminal His6 tag and the coding sequence for glutathione-S-transferase.

Chain of human IRAK4 (Q9NWZ3 whole entry): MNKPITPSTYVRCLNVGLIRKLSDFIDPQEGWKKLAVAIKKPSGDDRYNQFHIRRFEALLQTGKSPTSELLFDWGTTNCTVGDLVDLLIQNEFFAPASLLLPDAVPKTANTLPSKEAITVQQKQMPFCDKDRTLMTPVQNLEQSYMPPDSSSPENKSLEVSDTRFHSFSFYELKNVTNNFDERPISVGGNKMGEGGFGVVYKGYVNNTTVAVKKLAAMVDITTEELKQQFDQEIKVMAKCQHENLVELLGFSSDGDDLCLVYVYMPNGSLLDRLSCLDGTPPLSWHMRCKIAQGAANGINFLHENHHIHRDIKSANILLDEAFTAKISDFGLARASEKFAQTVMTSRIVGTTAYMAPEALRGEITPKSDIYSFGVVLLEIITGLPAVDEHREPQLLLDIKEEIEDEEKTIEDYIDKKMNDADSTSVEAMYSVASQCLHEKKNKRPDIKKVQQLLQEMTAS

| SMILES | Ki |
| --- | --- |
| C[C@]1(O)COc2cc(N3CCN(CC(F)F)CC3)c(NC(=O)c3cnn4cccnc34)cc2C1 [Example 510, (R)—N-(7-(4-(2,2-difluoroethyl)piperazin-1-yl)-3-hydroxy-3-methylchroman-6-yl)pyrazolo[1,5-a]pyrimidine-3-carboxamide] | 44 nM |
| CC1(C)Cc2cc(NC(=O)c3cnn4ccc(C[C@@H]5CNC(=O)C5)nc34)c(C3CC3)cc2O1 [Example 512, (S)—N-(6-Cyclopropyl-2,2-dimethyl-2,3-dihydrobenzofuran-5-yl)-5-((5-oxopyrrolidin-3-yl)methyl)pyrazolo[1,5-a]pyrimidine-3-carboxamide] | 150 nM |
| CC1(C)Cc2cc(NC(=O)c3cnn4ccc(C[C@H]5CNC(=O)C5)nc34)c(C3CC3)cc2O1 [Example 513, (R)—N-(6-cyclopropyl-2,2-dimethyl-2,3-dihydrobenzofuran-5-yl)-5-((5-oxopyrrolidin-3-yl)methyl)pyrazolo[1,5-a]pyrimidine-3-carboxamide] | 210 nM |
| CC1(C)Cc2cc(NC(=O)c3cnn4ccc(C[C@H]5CCNC5=O)nc34)c(C3CC3)cc2O1 [Example 514, (R)—N-(6-cyclopropyl-2,2-dimethyl-2,3-dihydrobenzofuran-5-yl)-5-((2-oxopyrrolidin-3-yl)methyl)pyrazolo[1,5-a]pyrimidine-3-carboxamide] | 810 nM |
| CC1(C)Cc2cc(NC(=O)c3cnn4ccc(C[C@@H]5CCNC5=O)nc34)c(C3CC3)cc2O1 [Example 515, (S)—N-(6-cyclopropyl-2,2-dimethyl-2,3-dihydrobenzofuran-5-yl)-5-((2-oxopyrrolidin-3-yl)methyl)pyrazolo[1,5-a]pyrimidine-3-carboxamide] | 420 nM |
| CP(C)(=O)c1ccc(NC(=O)c2cnn3cccnc23)c(N2CCOCC2)c1 [Example 518, N-(4-dimethylphosphoryl-2-morpholino-phenyl)pyrazolo[1,5-a]pyrimidine-3-carboxamide] | 130 nM |
| C[C@@]1(CC#N)COc2cc(N3CCOCC3)c(NC(=O)c3cnn4cccnc34)cc2C1 [Example 519, N-[(3R)-3-(cyanomethyl)-3-methyl-7-morpholino-chroman-6-yl]pyrazolo[1,5-a]pyrimidine-3-carboxamide] | 39 nM |
| C[C@]1(CC#N)COc2cc(N3CCOCC3)c(NC(=O)c3cnn4cccnc34)cc2C1 [Example 520, N-[(3S)-3-(cyanomethyl)-3-methyl-7-morpholino-chroman-6-yl]pyrazolo[1,5-a]pyrimidine-3-carboxamide] | 1.1 nM |
| CC(C)(O)[C@H](F)CN1Cc2cc(NC(=O)c3cnn4cccnc34)c(Cl)cc2C1=O [Example 521, N-[6-chloro-2-[(2R)-2-fluoro-3-hydroxy-3-methyl-butyl]-1-oxo-isoindolin-5-yl]pyrazolo[1,5-a]pyrimidine-3-carboxamide] | 4 nM |
| CC(C)(O)[C@@]1(C)Cc2cc(NC(=O)c3cnn4cccnc34)c(N3CCN(Cc4c[nH]cn4)CC3)cc2O1 [Example 522, N-[(2R)-2-(1-Hydroxy-1-methyl-ethyl)-6-[4-(1H-imidazol-4-ylmethyl)piperazin-1-yl]-2-methyl-3H-benzofuran-5-yl]pyrazolo[1,5-a]pyrimidine-3-carboxamide] | 3.4 nM |
| CC(C)(O)[C@]1(C)Cc2cc(NC(=O)c3cnn4cccnc34)c(N3CCN(Cc4c[nH]cn4)CC3)cc2O1 [Example 523, N-[(2S)-2-(1-hydroxy-1-methyl-ethyl)-6-[4-(1H-imidazol-4-ylmethyl)piperazin-1-yl]-2-methyl-3H-benzofuran-5-yl]pyrazolo[1,5-a]pyrimidine-3-carboxamide] | 4.4 nM |
| CC(C)(O)[C@]1(C)Cc2cc(NC(=O)c3cnn4cccnc34)c(N3CCN(CC(N)=O)CC3)cc2O1 [Example 524, N-[(2S)-6-[4-(2-amino-2-oxo-ethyl)piperazin-1-yl]-2-(1-hydroxy-1-methyl-ethyl)-2-methyl-3H-benzofuran-5-yl]pyrazolo[1,5-a]pyrimidine-3-carboxamide] | 4.1 nM |
